This is an account of results in ChEMBL document CHEMBL4152312, “Identification of fused pyrimidines as interleukin 17 secretion inhibitors” (Eur J Med Chem, 2018).

Structures are written as SMILES.

One assay has as its system PBMC. As to the kind of experiment: Inhibition of IL-5 secretion in anti-human CD3 antibody/anti-human CD28 antibody/IL23-stimulated human PBMC after 48 hrs by ELISA. The class given is functional, cell-based. For orientation: ELISA stands for enzyme-linked immunosorbent assay.
Assay [1] addresses PI3-kinase p110-alpha/p85-alpha (Homo sapiens) (UniProt P27986+P42336). As to the kind of experiment: Inhibition of recombinant full length human His-tagged PI3K p110alpha/p85alpha at 500 nM by Z-LYTE assay relative to control. It is filed as protein-complex assay.
For assay [2], the target named is RAC-alpha serine/threonine-protein kinase (Homo sapiens) (UniProt P31749). As to the kind of experiment: Inhibition of recombinant human full length His-tagged AKT1 expressed in baculovirus expression system at 500 nM by Z-LYTE assay relative to control.
For assay [3], the target named is Nuclear receptor ROR-gamma (Homo sapiens, UniProt P51449). The assay is described as follows: Antagonist activity at GAL4-DBD fused human RORgamma LBD expressed in HEK293 cells after 18 hrs by luciferase reporter gene assay. The class given is cell-based. (A reporter such as luciferase makes a cellular process visible.)
Assay [4] concerns the target Luciferin 4-monooxygenase (Photinus pyralis, UniProt P08659). As to the kind of experiment: Inhibition of firefly luciferase activity expressed in HEK293 cells after 18 hrs by luminescence assay. The class given is cell-based.

Chain of RAC-alpha serine/threonine-protein kinase (Homo sapiens) (P31749 whole entry, the tested form may be a part): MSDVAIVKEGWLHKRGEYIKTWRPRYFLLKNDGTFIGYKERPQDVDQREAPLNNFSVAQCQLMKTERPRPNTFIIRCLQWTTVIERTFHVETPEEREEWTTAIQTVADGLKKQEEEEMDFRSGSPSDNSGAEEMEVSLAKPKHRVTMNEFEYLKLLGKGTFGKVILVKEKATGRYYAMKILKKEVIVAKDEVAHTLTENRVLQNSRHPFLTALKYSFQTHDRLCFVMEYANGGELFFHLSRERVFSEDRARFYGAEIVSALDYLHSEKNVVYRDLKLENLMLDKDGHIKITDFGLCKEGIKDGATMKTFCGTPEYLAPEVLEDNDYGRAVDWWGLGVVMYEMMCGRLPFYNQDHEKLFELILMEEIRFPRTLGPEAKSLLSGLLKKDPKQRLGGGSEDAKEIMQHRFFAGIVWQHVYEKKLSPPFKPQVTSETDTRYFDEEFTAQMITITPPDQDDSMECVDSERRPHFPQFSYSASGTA
Chain of Luciferin 4-monooxygenase (P08659 whole entry): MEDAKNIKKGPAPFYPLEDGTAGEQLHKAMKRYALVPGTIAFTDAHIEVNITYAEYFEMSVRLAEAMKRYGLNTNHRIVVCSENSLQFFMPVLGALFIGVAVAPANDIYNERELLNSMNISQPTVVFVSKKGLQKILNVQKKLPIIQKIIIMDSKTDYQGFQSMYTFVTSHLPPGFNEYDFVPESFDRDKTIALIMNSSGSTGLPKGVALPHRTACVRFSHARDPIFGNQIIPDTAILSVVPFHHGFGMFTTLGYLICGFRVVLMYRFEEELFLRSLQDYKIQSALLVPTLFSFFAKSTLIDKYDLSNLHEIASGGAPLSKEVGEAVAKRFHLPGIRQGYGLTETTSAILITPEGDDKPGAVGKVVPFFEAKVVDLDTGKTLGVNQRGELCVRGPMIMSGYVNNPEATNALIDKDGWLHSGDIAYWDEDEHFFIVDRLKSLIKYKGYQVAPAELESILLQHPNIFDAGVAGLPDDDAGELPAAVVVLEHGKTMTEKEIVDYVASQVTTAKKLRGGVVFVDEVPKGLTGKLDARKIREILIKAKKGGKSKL
Chain of Nuclear receptor ROR-gamma (P51449 whole entry, the tested form may be a part): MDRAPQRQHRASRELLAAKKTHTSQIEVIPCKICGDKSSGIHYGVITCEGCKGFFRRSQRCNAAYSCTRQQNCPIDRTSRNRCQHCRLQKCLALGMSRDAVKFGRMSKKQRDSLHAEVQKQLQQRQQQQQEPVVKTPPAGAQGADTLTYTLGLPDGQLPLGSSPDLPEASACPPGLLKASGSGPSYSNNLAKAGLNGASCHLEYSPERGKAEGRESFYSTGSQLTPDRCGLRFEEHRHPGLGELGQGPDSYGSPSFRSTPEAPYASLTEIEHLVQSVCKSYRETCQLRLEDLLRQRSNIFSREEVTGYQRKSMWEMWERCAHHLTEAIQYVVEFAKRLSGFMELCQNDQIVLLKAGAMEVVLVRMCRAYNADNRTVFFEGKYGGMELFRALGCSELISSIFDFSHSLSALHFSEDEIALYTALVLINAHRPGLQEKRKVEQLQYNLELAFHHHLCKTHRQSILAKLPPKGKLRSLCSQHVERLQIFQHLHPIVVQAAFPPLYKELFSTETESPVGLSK

The term IC50 denotes the midpoint of a concentration-inhibition curve. A higher IC50 goes with lower potency. In general, inhibition refers to the drop in the measured response relative to a control, in per cent. `OC[C@@H](Nc1ncnc2sc(-c3ccc(O)cc3)cc12)c1ccccc1` yielded a half-maximal inhibitory concentration (IC50) with PBMC of 13 to 13.1 µM. Also, the inhibition is 16% in assay [1] and -1% in assay [2].
As for `CN(C)CCn1cc(-c2cccc(O)c2)c2c(N)ncnc21`, the IC50 in assay [3] and in assay [4] was more than 10 µM in each case. Moreover, the inhibition in assay [2] amounted to 0%.
As for `OCc1ccc(-c2cc3c(N[C@H](CO)c4ccccc4)ncnc3[nH]2)cc1`, in the assay with PBMC, inhibition was half-maximal at 1.1 µM (IC50). Besides, in assay [2], the inhibition is -4%.
`CCC(=O)Nc1ccc(-c2c[nH]c3ncnc(N[C@H](C)c4ccccc4)c23)cc1`: the IC50 in assay [3] worked out at 4.9 µM; in assay [4], 9.1 µM. For the same compound, in assay [2], the inhibition is -4%.
